Results taken from PubChem BioAssay (NCI).
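Method: 48-hour compound exposure of cells in 96-well plates, five concentrations, linear interpolation of endpoints. TGI denotes the concentration required for complete inhibition of growth.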

Assays:
Test in all cases: NCI-60 cell line screen, 48 h
K-562 leukemia = tested on: K-562 leukemia
EKVX NSCLC = tested on: EKVX NSCLC
NCI-H226 lung = tested on: NCI-H226 lung
NCI/ADR-RES ovarian = tested on: NCI/ADR-RES ovarian
MDA-N = tested on: MDA-N
SN12C renal = tested on: SN12C renal
PC-3 prostate = tested on: PC-3 prostate
CCRF-CEM leukemia = tested on: CCRF-CEM leukemia
SF-295 CNS = tested on: SF-295 CNS
BT-549 breast = tested on: BT-549 breast

S=C1C(=Nc2ccccc2)N(c2ccccc2)/C(=N\c2ccccn2)N1c1ccccc1
TGI (K-562 leukemia): > 100 µM | TGI (EKVX NSCLC): 29.1 µM | TGI (NCI-H226 lung): 36.8 µM | TGI (NCI/ADR-RES ovarian): 33.7 µM | TGI (MDA-N): 18.5 µM | TGI (SN12C renal): 24 µM | TGI (PC-3 prostate): 25.4 µM | TGI (CCRF-CEM leukemia): > 100 µM | TGI (SF-295 CNS): 29.9 µM

O=C1OC2(C(F)(F)F)Oc3ccccc3CN2C12CCCCC2 (stereo not drawn)
TGI (K-562 leukemia): 52.6 µM | TGI (EKVX NSCLC): > 100 µM | TGI (NCI-H226 lung): 90.8 µM | TGI (NCI/ADR-RES ovarian): > 100 µM | TGI (MDA-N): > 100 µM | TGI (BT-549 breast): > 100 µM | TGI (SN12C renal): > 100 µM | TGI (PC-3 prostate): 88 µM | TGI (CCRF-CEM leukemia): 62.7 µM | TGI (SF-295 CNS): 86.8 µM

Nc1ccc(-c2nc3cc(F)ccc3s2)cc1I
TGI (K-562 leukemia): > 100 µM | TGI (EKVX NSCLC): 43.9 µM | TGI (NCI-H226 lung): 21 µM | TGI (NCI/ADR-RES ovarian): 54.3 µM | TGI (MDA-N): > 100 µM | TGI (BT-549 breast): 29.9 µM | TGI (SN12C renal): > 69.8 µM | TGI (PC-3 prostate): > 100 µM | TGI (CCRF-CEM leukemia): > 100 µM | TGI (SF-295 CNS): > 56.6 µM

Cc1cc(=O)n2nc(CSc3nnc(N)s3)sc2n1
TGI (K-562 leukemia): > 100 µM | TGI (EKVX NSCLC): > 100 µM | TGI (NCI-H226 lung): > 100 µM | TGI (NCI/ADR-RES ovarian): > 100 µM | TGI (MDA-N): > 100 µM | TGI (BT-549 breast): > 100 µM | TGI (SN12C renal): > 100 µM | TGI (PC-3 prostate): > 100 µM | TGI (CCRF-CEM leukemia): > 100 µM | TGI (SF-295 CNS): > 100 µM

CCOC(=O)/C(C#N)=C/c1ccc(CO)o1
TGI (K-562 leukemia): > 100 µM | TGI (EKVX NSCLC): > 100 µM | TGI (NCI-H226 lung): > 100 µM | TGI (NCI/ADR-RES ovarian): > 100 µM | TGI (MDA-N): > 100 µM | TGI (SN12C renal): > 100 µM | TGI (PC-3 prostate): > 100 µM | TGI (SF-295 CNS): > 100 µM

NS(=O)(=O)c1ccc(Nc2c3ccccc3nc3c(C(=O)NCCCN(CCO)CCO)cccc23)cc1
TGI (K-562 leukemia): > 100 µM | TGI (EKVX NSCLC): > 100 µM | TGI (NCI/ADR-RES ovarian): > 100 µM | TGI (MDA-N): 41.9 µM | TGI (BT-549 breast): 52.7 µM | TGI (SN12C renal): 46.5 µM | TGI (PC-3 prostate): > 100 µM | TGI (CCRF-CEM leukemia): 58.6 µM | TGI (SF-295 CNS): > 100 µM

CCCC(CC)c1c(O)c(O)c(C(CC)CCC)c(C(CC)CCC)c1C(CC)CCC (stereo not drawn)
TGI (K-562 leukemia): > 10 µM | TGI (EKVX NSCLC): > 10 µM | TGI (NCI-H226 lung): > 10 µM | TGI (NCI/ADR-RES ovarian): > 10 µM | TGI (MDA-N): > 10 µM | TGI (BT-549 breast): > 10 µM | TGI (SN12C renal): > 10 µM | TGI (PC-3 prostate): > 10 µM | TGI (CCRF-CEM leukemia): > 10 µM | TGI (SF-295 CNS): > 10 µM

Oc1ccc2c(c1)CC[N+]1=C2CCC2CCCC21 (stereo not drawn)
TGI (EKVX NSCLC): > 100 µM | TGI (NCI-H226 lung): > 100 µM | TGI (SN12C renal): > 100 µM | TGI (SF-295 CNS): > 100 µM

COc1ccccc1NC(=S)N/N=C(/C)c1ccccn1
TGI (K-562 leukemia): > 100 µM | TGI (EKVX NSCLC): > 100 µM | TGI (MDA-N): > 100 µM | TGI (SN12C renal): 6.73 µM | TGI (PC-3 prostate): > 100 µM | TGI (CCRF-CEM leukemia): 0.0737 µM | TGI (SF-295 CNS): > 100 µM

CCN(CC)C(=S)N/N=C/c1ccccn1
TGI (K-562 leukemia): > 100 µM | TGI (EKVX NSCLC): > 100 µM | TGI (NCI-H226 lung): 0.989 µM | TGI (NCI/ADR-RES ovarian): 0.692 µM | TGI (MDA-N): > 100 µM | TGI (BT-549 breast): > 100 µM | TGI (PC-3 prostate): > 100 µM | TGI (CCRF-CEM leukemia): > 100 µM | TGI (SF-295 CNS): > 77.1 µM

CCc1nn(S(=O)(=O)c2ccc(C)cc2)c2c1CS(=O)(=O)CC2
TGI (K-562 leukemia): > 100 µM | TGI (EKVX NSCLC): > 100 µM | TGI (NCI/ADR-RES ovarian): > 100 µM | TGI (MDA-N): > 100 µM | TGI (BT-549 breast): > 100 µM | TGI (SN12C renal): > 100 µM | TGI (PC-3 prostate): > 100 µM | TGI (SF-295 CNS): > 100 µM

O=C1C=C2CO[C@H]3OC[C@H](O)[C@@H]1[C@@H]23
TGI (K-562 leukemia): > 100 µM | TGI (EKVX NSCLC): > 100 µM | TGI (NCI/ADR-RES ovarian): > 100 µM | TGI (MDA-N): > 100 µM | TGI (BT-549 breast): > 100 µM | TGI (SN12C renal): 90 µM | TGI (PC-3 prostate): > 100 µM | TGI (CCRF-CEM leukemia): 66.8 µM | TGI (SF-295 CNS): > 100 µM
